Test results taken from ChEMBL document CHEMBL1138892, “Synthesis of Hsp90 dimerization modulators” (Bioorg Med Chem Lett, 2006).

Biological target: Heat shock protein HSP90 (Homo sapiens, UniProt P07900+P08238)
Description: Displacement of GM-BODIPY from Hsp90

COC1=C2C[C@@H](C)C[C@H](OC)[C@H](O)[C@@H](C)/C=C(\C)[C@H](OC(N)=O)[C@@H](OC)/C=C\C=C(/C)C(=O)NC(=C(NC/C=C\CNC3=C4NC(=O)/C(C)=C/C=C\[C@H](OC)[C@@H](OC(N)=O)/C(C)=C/[C@H](C)[C@@H](O)[C@@H](OC)C[C@H](C)CC(=C(OC)C3=O)C4=O)C1=O)C2=O
EC50: 345 nM

COC1=C2C[C@@H](C)C[C@H](OC)[C@H](O)[C@@H](C)/C=C(\C)[C@H](OC(N)=O)[C@@H](OC)/C=C\C=C(/C)C(=O)NC(=C(NCCCCNC3=C4NC(=O)/C(C)=C/C=C\[C@H](OC)[C@@H](OC(N)=O)/C(C)=C/[C@H](C)[C@@H](O)[C@@H](OC)C[C@H](C)CC(=C(OC)C3=O)C4=O)C1=O)C2=O
EC50: 91 nM

COC1=C2C[C@@H](C)C[C@H](OC)[C@H](O)[C@@H](C)/C=C(\C)[C@H](OC(N)=O)[C@@H](OC)/C=C\C=C(/C)C(=O)NC(=C(NCCCCCCCCCNC3=C4NC(=O)/C(C)=C/C=C\[C@H](OC)[C@@H](OC(N)=O)/C(C)=C/[C@H](C)[C@@H](O)[C@@H](OC)C[C@H](C)CC(=C(OC)C3=O)C4=O)C1=O)C2=O
EC50: 465 nM

COC1=C2C[C@@H](C)C[C@H](OC)[C@H](O)[C@@H](C)/C=C(\C)[C@H](OC(N)=O)[C@@H](OC)/C=C\C=C(/C)C(=O)NC(=C(NC/C=C/CNC3=C4NC(=O)/C(C)=C/C=C\[C@H](OC)[C@@H](OC(N)=O)/C(C)=C/[C@H](C)[C@@H](O)[C@@H](OC)C[C@H](C)CC(=C(OC)C3=O)C4=O)C1=O)C2=O
EC50: 45 nM
